{"source": "patent US11497212B2", "about": "“Substituted thiophenyl uracils, salts thereof and the use thereof as herbicidal agents” (Syngenta Crop Protection AG, priority 2017, dated 2022)", "assay_type_in_all_cases": "in vivo", "key": {"Pharbitis purpurea [1]": {"system": "Pharbitis purpurea", "experiment": "Herbicidal action pre-emergence (greenhouse pot trial)", "conditions": "application rate 320 g/ha", "outline": "(§1)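 Efficacy scored visually as percent of untreated control (0% = like control, 100% = dead) roughly 3 weeks after treatment. Compounds, as WP or EC plus 0.5% additive in 600 L/ha water, were applied at up to 320 g/ha to soil surface covering freshly sown seeds.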"}, "Hordeum murinum [2]": {"system": "Hordeum murinum", "experiment": "Herbicidal action pre-emergence (greenhouse pot trial)", "conditions": "application rate 320 g/ha", "outline": "as §1"}, "Veronica persica [3]": {"system": "Veronica persica", "experiment": "Herbicidal action pre-emergence (greenhouse pot trial)", "conditions": "application rate 320 g/ha", "outline": "as §1"}, "Avena fatua [4]": {"system": "Avena fatua", "experiment": "Herbicidal action pre-emergence (greenhouse pot trial)", "conditions": "application rate 320 g/ha", "outline": "as §1"}, "Stellaria media [5]": {"system": "Stellaria media", "experiment": "Herbicidal action pre-emergence (greenhouse pot trial)", "conditions": "application rate 320 g/ha, scored after about 3 weeks", "outline": "as §1"}, "Amaranthus retroflexus [6]": {"system": "Amaranthus retroflexus", "experiment": "Herbicidal action pre-emergence (greenhouse pot trial)", "conditions": "application rate 320 g/ha, scored after about 3 weeks", "outline": "as §1"}, "Cyperus esculentus": {"system": "Cyperus esculentus", "experiment": "Herbicidal action pre-emergence (greenhouse pot trial)", "conditions": "application rate 320 g/ha", "outline": "as §1"}, "Setaria viridis [7]": {"system": "Setaria viridis", "experiment": "Herbicidal action pre-emergence (greenhouse pot trial)", "conditions": "application rate 320 g/ha, scored after about 3 weeks", "outline": "as §1"}, "Matricaria inodora [8]": {"system": "Matricaria inodora", "experiment": "Herbicidal action pre-emergence (greenhouse pot trial)", "conditions": "application rate 320 g/ha, scored after about 3 weeks", "outline": "as §1"}, "Echinochloa crus-galli [9]": {"system": "Echinochloa crus-galli", "experiment": "Herbicidal action pre-emergence (greenhouse pot trial)", "conditions": "application rate 320 g/ha, scored after about 3 weeks", "outline": "as §1"}, "Abutilon theophrasti [10]": {"system": "Abutilon theophrasti", "experiment": "Herbicidal action pre-emergence (greenhouse pot trial)", "conditions": "application rate 320 g/ha, scored after about 3 weeks", "outline": "as §1"}, "Viola tricolor [11]": {"system": "Viola tricolor", "experiment": "Herbicidal action pre-emergence (greenhouse pot trial)", "conditions": "application rate 320 g/ha, scored after about 3 weeks", "outline": "as §1"}, "Alopecurus myosuroides": {"system": "Alopecurus myosuroides", "experiment": "Herbicidal action pre-emergence (greenhouse pot trial)", "conditions": "application rate 320 g/ha, scored after about 3 weeks", "outline": "as §1"}, "Lolium rigidum [12]": {"system": "Lolium rigidum", "experiment": "Herbicidal action pre-emergence (greenhouse pot trial)", "conditions": "application rate 320 g/ha", "outline": "as §1"}, "Triticum aestivum": {"system": "Triticum aestivum", "experiment": "Crop compatibility post-emergence (greenhouse pot trial)", "conditions": "application rate 20 g/ha", "outline": "(§2)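 Greenhouse pot trial: sandy loam, sown seeds, treatment at one-leaf stage 2–3 wk after sowing. Spray: aqueous WP/EC preparation, 0.5% additive, 600 L/ha. Readout: visual % effect after ~3 wk relative to untreated plants.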"}, "Glycine max [13]": {"system": "Glycine max", "experiment": "Crop compatibility post-emergence (greenhouse pot trial)", "conditions": "application rate 20 g/ha", "outline": "as §2"}, "Zea mays [14]": {"system": "Zea mays", "experiment": "Crop compatibility post-emergence (greenhouse pot trial)", "conditions": "application rate 20 g/ha", "outline": "as §2"}, "Polygonum convolvulus": {"system": "Polygonum convolvulus", "experiment": "Herbicidal action post-emergence (greenhouse pot trial)", "conditions": "application rate 80 g/ha, scored visually after about 3 weeks vs untreated controls", "outline": "(§3)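 Visual efficacy score after ~3 wk in greenhouse vs untreated control; 100% = plants dead, 0% = like control. Spray: aqueous suspension/emulsion of WP or EC, 0.5% additive, 600 L/ha water, ≤80 g/ha. Plants in sandy loam pots, treated at one-leaf stage, 2–3 wk post-sowing.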"}, "Pharbitis purpurea [15]": {"system": "Pharbitis purpurea", "experiment": "Herbicidal action post-emergence (greenhouse pot trial)", "conditions": "application rate 80 g/ha", "outline": "as §3"}, "Hordeum murinum [16]": {"system": "Hordeum murinum", "experiment": "Herbicidal action post-emergence (greenhouse pot trial)", "conditions": "application rate 80 g/ha, scored visually after about 3 weeks vs untreated controls", "outline": "as §3"}, "Veronica persica [17]": {"system": "Veronica persica", "experiment": "Herbicidal action post-emergence (greenhouse pot trial)", "conditions": "application rate 80 g/ha", "outline": "as §3"}, "Avena fatua [18]": {"system": "Avena fatua", "experiment": "Herbicidal action post-emergence (greenhouse pot trial)", "conditions": "application rate 80 g/ha, scored visually after about 3 weeks vs untreated controls", "outline": "as §3"}, "Stellaria media [19]": {"system": "Stellaria media", "experiment": "Herbicidal action post-emergence (greenhouse pot trial)", "conditions": "application rate 80 g/ha, scored visually after about 3 weeks vs untreated controls", "outline": "as §3"}, "Amaranthus retroflexus [20]": {"system": "Amaranthus retroflexus", "experiment": "Herbicidal action post-emergence (greenhouse pot trial)", "conditions": "application rate 80 g/ha, scored visually after about 3 weeks vs untreated controls", "outline": "as §3"}, "Setaria viridis [21]": {"system": "Setaria viridis", "experiment": "Herbicidal action post-emergence (greenhouse pot trial)", "conditions": "application rate 80 g/ha, scored visually after about 3 weeks vs untreated controls", "outline": "as §3"}, "Matricaria inodora [22]": {"system": "Matricaria inodora", "experiment": "Herbicidal action post-emergence (greenhouse pot trial)", "conditions": "application rate 80 g/ha, scored visually after about 3 weeks vs untreated controls", "outline": "as §3"}, "Echinochloa crus-galli [23]": {"system": "Echinochloa crus-galli", "experiment": "Herbicidal action post-emergence (greenhouse pot trial)", "conditions": "application rate 80 g/ha, scored visually after about 3 weeks vs untreated controls", "outline": "as §3"}, "Abutilon theophrasti [24]": {"system": "Abutilon theophrasti", "experiment": "Herbicidal action post-emergence (greenhouse pot trial)", "conditions": "application rate 80 g/ha, scored visually after about 3 weeks vs untreated controls", "outline": "as §3"}, "Viola tricolor [25]": {"system": "Viola tricolor", "experiment": "Herbicidal action post-emergence (greenhouse pot trial)", "conditions": "application rate 80 g/ha", "outline": "as §3"}, "Lolium rigidum [26]": {"system": "Lolium rigidum", "experiment": "Herbicidal action post-emergence (greenhouse pot trial)", "conditions": "application rate 80 g/ha, scored visually after about 3 weeks vs untreated controls", "outline": "as §3"}, "Glycine max [27]": {"system": "Glycine max", "experiment": "Crop compatibility pre-emergence (greenhouse pot trial)", "conditions": "application rate 80 g/ha, effect vs untreated controls", "outline": "(§4)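 Seeds sown in pots and covered with soil; compounds formulated as WP or EC applied pre-emergence to the soil surface as aqueous suspension/emulsion with 0.5% additive at 600 L/ha water. Plants kept in greenhouse; crop damage scored visually after about 3 weeks as % versus untreated controls (0% = like control, 100% = dead).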"}, "Zea mays [28]": {"system": "Zea mays", "experiment": "Crop compatibility pre-emergence (greenhouse pot trial)", "conditions": "application rate 80 g/ha, effect vs untreated controls", "outline": "as §4"}}}
{"compound": "CC(Sc1cc(-n2c(=O)cc(C(F)(F)F)n(C)c2=O)c(F)cc1Cl)C(=O)OCC1CCOC1", "note": "(centres unmarked) [I.1-72]", "values": [{"measurement": "Pharbitis purpurea (Efficacy in %)", "setting": "Pharbitis purpurea [1]", "result": 100, "unit": "%"}, {"measurement": "Hordeum murinum (Efficacy in %)", "setting": "Hordeum murinum [2]", "result": 90, "unit": "%"}, {"measurement": "Veronica persica (Efficacy in %)", "setting": "Veronica persica [3]", "result": 100, "unit": "%"}, {"measurement": "Avena fatua (Efficacy in %)", "setting": "Avena fatua [4]", "result": 100, "unit": "%"}, {"measurement": "Stellaria media (Efficacy in %)", "setting": "Stellaria media [5]", "result": 100, "unit": "%"}, {"measurement": "Amaranthus retroflexus (Efficacy in %)", "setting": "Amaranthus retroflexus [6]", "result": 100, "unit": "%"}, {"measurement": "Cyperus esculentus (Efficacy in %)", "setting": "Cyperus esculentus", "result": 80, "unit": "%"}, {"measurement": "Setaria viridis (Efficacy in %)", "setting": "Setaria viridis [7]", "result": 100, "unit": "%"}, {"measurement": "Matricaria inodora (Efficacy in %)", "setting": "Matricaria inodora [8]", "result": 100, "unit": "%"}, {"measurement": "Echinochloa crus-galli (Efficacy in %)", "setting": "Echinochloa crus-galli [9]", "result": 100, "unit": "%"}, {"measurement": "Abutilon theophrasti (Efficacy in %)", "setting": "Abutilon theophrasti [10]", "result": 100, "unit": "%"}, {"measurement": "Viola tricolor (Efficacy in %)", "setting": "Viola tricolor [11]", "result": 100, "unit": "%"}, {"measurement": "Alopecurus myosuroides (Efficacy in %)", "setting": "Alopecurus myosuroides", "result": 90, "unit": "%"}, {"measurement": "Lolium rigidum (Efficacy in %)", "setting": "Lolium rigidum [12]", "result": 100, "unit": "%"}, {"measurement": "Triticum aestivum (Efficacy in %)", "setting": "Triticum aestivum", "result": 0, "unit": "%"}, {"measurement": "Glycine max (Efficacy in %)", "setting": "Glycine max [13]", "result": 10, "unit": "%"}, {"measurement": "Zea mays (Efficacy in %)", "setting": "Zea mays [14]", "result": 20, "unit": "%"}, {"measurement": "Polygonum convolvulus (Efficacy in %)", "setting": "Polygonum convolvulus", "result": 100, "unit": "%"}, {"measurement": "Pharbitis purpurea (Efficacy in %)", "setting": "Pharbitis purpurea [15]", "result": 100, "unit": "%"}, {"measurement": "Hordeum murinum (Efficacy in %)", "setting": "Hordeum murinum [16]", "result": 80, "unit": "%"}, {"measurement": "Veronica persica (Efficacy in %)", "setting": "Veronica persica [17]", "result": 100, "unit": "%"}, {"measurement": "Avena fatua (Efficacy in %)", "setting": "Avena fatua [18]", "result": 80, "unit": "%"}, {"measurement": "Stellaria media (Efficacy in %)", "setting": "Stellaria media [19]", "result": 100, "unit": "%"}, {"measurement": "Amaranthus retroflexus (Efficacy in %)", "setting": "Amaranthus retroflexus [20]", "result": 100, "unit": "%"}, {"measurement": "Setaria viridis (Efficacy in %)", "setting": "Setaria viridis [21]", "result": 100, "unit": "%"}, {"measurement": "Matricaria inodora (Efficacy in %)", "setting": "Matricaria inodora [22]", "result": 100, "unit": "%"}, {"measurement": "Echinochloa crus-galli (Efficacy in %)", "setting": "Echinochloa crus-galli [23]", "result": 100, "unit": "%"}, {"measurement": "Abutilon theophrasti (Efficacy in %)", "setting": "Abutilon theophrasti [24]", "result": 100, "unit": "%"}, {"measurement": "Viola tricolor (Efficacy in %)", "setting": "Viola tricolor [25]", "result": 100, "unit": "%"}, {"measurement": "Lolium rigidum (Efficacy in %)", "setting": "Lolium rigidum [26]", "result": 100, "unit": "%"}, {"measurement": "Glycine max (Efficacy in %)", "setting": "Glycine max [27]", "result": 20, "unit": "%"}, {"measurement": "Zea mays (Efficacy in %)", "setting": "Zea mays [28]", "result": 20, "unit": "%"}]}
